Values of other authors in US20150050250A1, “CELL THERAPY TECHNOLOGY TO DELIVER RADIO-PROTECTIVE PEPTIDES” (UNIVERSITY OF SOUTHERN CALIFORNIA, priority 2012, published 2015).

Legend:
fibroblasts = conditions: BBI peptide at 20 μM added directly to the tissue culture medium

Molecule | protection of fibroblasts from ionizing radiation (fibroblasts) | radioprotection of normal tissue in vivo (normal tissue)
CALSYPAQCFC (portion of Soybean Bowman Birk protease inhibitor) [BBI peptide] | protected fibroblasts from ionizing radiation | –
Bowman Birk protease inhibitor (protein, Soybean) DDESSKPCCDQCACTKSNPPQCRCSDMRLNSCHSACKSCICALSYPAQCFCVDITDFCYEPCKPSEDDKEN | – | selective radioprotection to normal tissue in vivo
